Read-outs that look alike come from different tables or passages of the source.
How the values were obtained:
[1] = target: T1, HSV-1 ribonucleotide reductase (Human herpesvirus 1, UniProt P08543); assay: Inhibition of Herpes Simplex Virus (HSV-1) ribonucleotide reductase; assay type: biochemical
T1 construct: HSV-1 ribonucleotide reductase (partially purified) was obtained from quiescent BHK-21/C13 cells infected with strain F HSV-1 virus; made in house; host or cells: quiescent BHK-21/C13 cells infected with HSV-1 strain F (virus-encoded enzyme, partially purified)
T1 sequence (P08543 whole entry): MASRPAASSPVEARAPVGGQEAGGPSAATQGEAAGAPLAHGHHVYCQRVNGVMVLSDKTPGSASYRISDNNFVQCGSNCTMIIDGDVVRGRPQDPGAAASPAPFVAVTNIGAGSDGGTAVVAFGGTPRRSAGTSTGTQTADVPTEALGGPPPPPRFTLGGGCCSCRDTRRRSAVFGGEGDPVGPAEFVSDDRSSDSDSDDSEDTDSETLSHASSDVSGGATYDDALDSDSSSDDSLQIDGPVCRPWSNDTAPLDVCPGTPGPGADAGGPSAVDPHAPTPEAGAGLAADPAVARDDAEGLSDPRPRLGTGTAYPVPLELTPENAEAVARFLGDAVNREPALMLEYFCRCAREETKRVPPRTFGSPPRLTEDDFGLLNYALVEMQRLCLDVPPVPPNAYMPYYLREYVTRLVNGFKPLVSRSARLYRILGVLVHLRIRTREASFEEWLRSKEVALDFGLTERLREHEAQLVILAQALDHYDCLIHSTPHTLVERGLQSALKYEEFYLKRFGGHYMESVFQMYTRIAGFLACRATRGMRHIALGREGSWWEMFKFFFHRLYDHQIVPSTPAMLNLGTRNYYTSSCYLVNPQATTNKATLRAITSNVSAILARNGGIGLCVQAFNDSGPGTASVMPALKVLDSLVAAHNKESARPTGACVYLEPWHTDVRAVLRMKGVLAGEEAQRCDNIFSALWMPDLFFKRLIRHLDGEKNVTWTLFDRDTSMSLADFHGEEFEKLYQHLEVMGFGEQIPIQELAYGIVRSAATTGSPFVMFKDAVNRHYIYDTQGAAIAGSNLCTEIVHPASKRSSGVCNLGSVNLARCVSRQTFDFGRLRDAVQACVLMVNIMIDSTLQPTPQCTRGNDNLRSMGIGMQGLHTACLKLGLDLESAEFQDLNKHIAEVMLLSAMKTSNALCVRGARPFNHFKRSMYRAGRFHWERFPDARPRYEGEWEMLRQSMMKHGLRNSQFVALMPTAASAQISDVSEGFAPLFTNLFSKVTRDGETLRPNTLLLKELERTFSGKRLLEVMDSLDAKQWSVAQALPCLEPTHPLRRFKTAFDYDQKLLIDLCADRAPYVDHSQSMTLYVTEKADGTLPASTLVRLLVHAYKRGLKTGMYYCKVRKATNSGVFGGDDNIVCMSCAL
Procedure, shortened: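 Partially purified enzyme from quiescent BHK-21/C13 cells infected with HSV-1 strain F at 10 PFU/cell, used at constant units per assay. IC50 taken as concentration giving 50% of maximal inhibition versus no-compound control; mean of four assays.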

HSV-2 = assay: Inhibition of Herpes Simplex Virus (HSV-2) replication in cell culture; assay type: cell-based
Procedure, shortened: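 Serum-starved BHK-21/C13 cells infected with HSV-2 strain HG-52 (MOI 0.02 PFU/cell), then exposed to compound in BBMT medium for 29 h at 37°. Progeny virus titrated on fresh BHK-21/C13 cells by neutral red viability read at 540; EC50 as concentration halving virus replication.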

[2] = Table I, partially purified enzyme from BHK-21/C13 cells infected with strain F HSV-1, mean of four assays
[3] = Human alphaherpesvirus 2, BHK21 (C13), 29 h, Table II, BHK-21/C13 cells, HSV-2 strain HG-52, 0.02 PFU/cell, 29 h incubation, read-out: EC50
[4] = Human alphaherpesvirus 2, Table IV, cell culture assay of example 11, read-out: EC50
[5] = Table IV, cell culture assay of example 11, read-out: EC50

CCCC(CCC)NC(=O)NC(C(=O)CC(CC(=O)C(C)(C)C)C(=O)NC(C(=O)NCC(C)(C)C)C1(C(=O)O)CCCC1)C(C)(C)C [Pr2CHNHC(O)-Tbg-CH2-(R)-CH(CH2C(O)-CMe3)C(O)-Asp(cyPn)-NHCH2CMe3] gave an IC50 [1, 2] of 0.08 µM and an EC50 (HSV-2; [3]) of 24 µM.
CCCC(CCC)NC(=O)NC(C(=O)CC(CC(=O)C(C)(C)C)C(=O)NC(C(=O)NC(CO)CC(C)(C)C)C1(C(=O)O)CCCC1)C(C)(C)C [Pr2CHNHC(O)-Tbg-CH2-(R)-CH(CH2C(O)-CMe3)C(O)-Asp(cyPn)-γMeLeucinol] showed an IC50 [1, 2] of 0.2 µM and an EC50 (HSV-2; [3]) of 30 µM.
In the case of CCCC(CCC)NC(=O)NC(C(=O)CC(CC(=O)C(C)(C)C)C(=O)NC(C(=O)NC1CCCCC1(C)C)C1(C(=O)O)CCCC1)C(C)(C)C [Pr2CHNHC(O)-Tbg-CH2-(R)-CH(CH2C(O)CMe3)C(O)-Asp(cyPn)-NH-(2,2-dimethyl-cyclohexyl)], the IC50 ([1]; Table IV, assay of example 10) is reported as 0.4 µM and the EC50 (HSV-2; [4]) is reported as 24 µM.
CCCC(CCC)NC(=O)NC(C(=O)CC(CC(=O)C(C)(C)C)C(=O)NC(C(=O)NC1CCCC1(C)C)C1(C(=O)O)CCCC1)C(C)(C)C [Pr2CHNHC(O)-Tbg-CH2-(R)-CH(CH2C(O)CMe3)C(O)-Asp(cyPn)-NH-(2,2-dimethyl-cyclopentyl)] gave an IC50 ([1]; Table IV, assay of example 10) of 0.38 µM and an EC50 (HSV-2; [4]) of 31 µM.
With CCCC(CCC)NC(=O)NC(C(=O)CC(CC(=O)C(C)(C)C)C(=O)NC(C(=O)NC(C)C(C)(C)CC)C1(C(=O)O)CCCC1)C(C)(C)C [Pr2CHNHC(O)-Tbg-CH2-(R)-CH(CH2C(O)CMe3)C(O)-Asp(cyPn)-NH-(R)-CH(Me)C(Me)2Et] the IC50 ([1]; Table IV, assay of example 10) was 0.5 µM and the EC50 (HSV-2; Human alphaherpesvirus 2, Table IV, cell culture assay of example 11) was 21 µM.
CCCC(CCC)NC(=O)NC(C(=O)CC(CC(=O)C(C)(C)C)C(=O)NC(C(=O)NC1CCCCC1C)C1(C(=O)O)CCCC1)C(C)(C)C [Pr2CHNHC(O)-Tbg-CH2-(R)-CH(CH2C(O)CMe3)C(O)-Asp(cyPn)-cis-NH-(2-methyl-cyclohexyl)] was tested, and the IC50 ([1]; Table IV, assay of example 10) was 0.67 µM and the EC50 (HSV-2; [4]) was 75 µM.
CCCC(CCC)NC(=O)NC(C(=O)CC(CC(=O)C1(C)CCCC1)C(=O)NC(C(=O)NCC(C)(C)C)C1(C(=O)O)CCCC1)C(C)(C)C [Pr2CHNHC(O)-Tbg-CH2-(R)-CH{CH2-C(O)-(1-methylcyclopentyL)}C(O)-Asp(cyPn)-NHCH2CMe3] showed an IC50 ([1]; Table V, assay of example 10) of 0.24 µM and an EC50 (HSV-2; Human alphaherpesvirus 2) of 35 µM.
CCCC(CCC)NC(=O)NC(C(=O)CC(CC(=O)C1CCC1)C(=O)NC(C(=O)NCC(C)(C)C)C1(C(=O)O)CCCC1)C(C)(C)C [Pr2CHNHC(O)-Tbg-CH2-(R)-CH{CH2-C(O)-(cyclobutyl)}C(O)-Asp(cyPn)-NHCH2CMe3] gave an IC50 ([1]; Table V, assay of example 10) of 0.31 µM and an EC50 (HSV-2; Human alphaherpesvirus 2) of 46 µM.
For CCCC(CCC)NC(=O)NC(C(=O)CC(CC(=O)C1CCCCC1)C(=O)NC(C(=O)NCC(C)(C)C)C1(C(=O)O)CCCC1)C(C)(C)C [Pr2CHNHC(O)-Tbg-CH2-(R)-CH{CH2-C(O)-(cyclohexyl)}C(O)-Asp(cyPn)-NHCH2CMe3], the IC50 ([1]; Table V, assay of example 10) was 0.37 µM and the EC50 (HSV-2; Human alphaherpesvirus 2) was 61 µM.
For CCCC(CCC)NC(=O)NC(C(=O)CC(CC(=O)C(C)(C)C)C(=O)NC(C(=O)NC(C)C(C)(C)C)C1(C(=O)O)CCCC1)C(C)C [Pr2CHNHC(O)-Val-CH2-(R)-CH(CH2-C(O)CMe3)C(O)-Asp(cyPn)-NH-(R)-CH(Me)CMe3], the IC50 ([1]; Table V, assay of example 10) was 0.22 µM and the EC50 (HSV-2; Human alphaherpesvirus 2, Table V, cell culture assay of example 11) was 37 µM.
“EtPr2CHNHC(O)-Tbg-CH2-(R)-CH(CH2C(O)CMe3)C(O)-Asp(cyPn)-NHCH2CHEt2 [EtPr2CHNHC(O) / NHCH2CHEt2]” gave an IC50 ([1]; Table IV, assay of example 10) of 0.41 µM and an EC50 (HSV-2; [5]) of 42 µM.
Compound “Me(CH2=CH-CH2)2CNHC(O)-Tbg-CH2-(R)-CH(CH2C(O)CMe3)C(O)-Asp(cyPn)-NHCH2CMe3 [Me(CH2=CHCH2)2-CNHC(O) / NHCH2CMe3]” has an IC50 ([1]; Table IV, assay of example 10) of 0.27 µM and an EC50 (HSV-2; [5]) of 30 µM.

From patent publication EP0560267B1, “Isosteric antiherpes peptide derivatives” (BOEHRINGER INGELHEIM (CANADA) LTD., priority 1992, dated 1993)
